According to patent publication US20180371021A1, “PEPTIDOMIMETIC MACROCYCLES AND USES THEREOF” (Aileron Therapeutics, Inc., priority 2017, published 2018):
“And” between values parts separate entries of the source, which are not always exact repeats. Equal values may be shown once. “Also recorded” adds a separate entry of the source.

How the values were obtained:
[1] = Phase 1 dose-escalation trial of AP1: pharmacokinetic profile; assay type: in vivo, human; settings: patients, I.V. infusion
Description: Data were collected at different time points after the start of infusion (SOI) and the end of infusion (EOI).

[2] = system: MIC-1; assay: Phase 1 dose-escalation trial of AP1: plasma MIC-1 biomarker; assay type: in vivo, human; settings: plasma MIC-1 after end of AP1 infusion
Method: Depending on the sample type, the PD biomarkers included measures of MDMX, MDM2, p21, p53, apoptosis, macrophage inhibitory cytokine 1, or MIC-1.
In the Phase 1 dose-escalation study, plasma MIC-1 levels were measured at several time points after initial infusion.

[3] = system: MCF-7.1 human breast carcinoma xenograft; assay: MCF-7.1 human breast carcinoma xenograft model, AP1 and palbociclib; assay type: in vivo, mice; settings: AP1 20 mg/kg qwkx4, palbociclib 75 mg/kg qdx22
Method: Female athymic nude mice were provided with drinking water with 10 μg/mL with 17 beta estradiol supplementation 3 days prior to cell implantation and for the duration of the study. […] The mice were between 8-12 weeks of age at the beginning of the study. […] The group was not euthanized, and the mice were allowed to recover. […] Animals were monitored individually. […] Responders were followed for a longer period of time. When the endpoint was reached, the animals were euthanized. […] An aqueous phosphate-buffered saline solution or sodium lactate (50 mM, pH 4.0) solution was used as the vehicle.

[4] = system: peripheral T-Cell Lymphoma (PTCL); assay: Phase 2a clinical trial with AP1 in peripheral T-cell lymphoma; assay type: in vivo, human
Method: Based on the results of the dose-escalation study and the complete response observed in a patient with PTCL, a Phase 2a clinical trial was conducted in patients with PTCL.

[5] = system: MCF-7 cells; assay: MCF-7 cell proliferation (WST-1 / CyQUANT), AP1 and CDK4/CDK6 inhibitors; assay type: cell-based, human; settings: sequential treatment, 24 h pre-treatment
Method: The WST-1 variant of the MTT assay was used to measure cell viability. WST-1 is a cell-impermeable, sulfonated tetrazolium salt that can be used to examine cell viability without killing the cells. […] All media were supplemented with 10% (v/v) fetal calf serum, 100 units of penicillin, and 100 μg/mL of streptomycin at 37° C. and 5% CO2. Prior to dosing, MCF-7 cells were switched to serum-free medium and grown at 37° C. overnight. One day prior to assaying, the cells were trypsinized, counted, and seeded at pre-determined densities in 96-well plates as follows: MCF-7, 5000 cells/well/200 μL; MOLT-3, 30,000 cells/well/200 μL.
The concentration of ribociclib was kept constant.
The concentration of abemaciclib was kept constant.
Various MCF-7 cell numbers were plated and evaluated 3-7 days after plating to determine the optimal number of cells to be plated and to determine the treatment duration. […] MCF-7 cells were evaluated for viability using the WST-1 assay or the CyQUANT method 3-7 days or 120 h after beginning treatment.
The cells were evaluated for viability using the CyQUANT method after beginning the simultaneous treatments.
The cells were evaluated for viability using a WST-1 assay or MTT assay 3-7 days after beginning the treatments.
The data are expressed as log(CI).

[6] = system: A549 xenograft; assay: A549 xenograft model, AP1 and palbociclib; assay type: in vivo, mice
Description: The arrows indicate spontaneous tumor shrinkage in vehicle controls. The arrows with * indicate poor growth of tumors late in the study.

[7] = system: SJSA-1 osteosarcoma xenograft; assay: SJSA-1 osteosarcoma xenograft model, AP1 and palbociclib; assay type: in vivo, mice; settings: AP1 20 mg/kg qwkx4, palbociclib 75 mg/kg qdx22
Method: The group was not euthanized, and the mice were allowed to recover. […] Animals were monitored individually. […] Responders were followed for a longer period of time. When the endpoint was reached, the animals were euthanized. […] An aqueous phosphate-buffered saline solution or sodium lactate (50 mM, pH 4.0) solution was used as the vehicle.

[8] = Phase 1 dose-escalation trial of AP1: safety and tolerability; assay type: in vivo, human
Description: 71 patients were enrolled in the dose-escalation trial. The trial used a “3+3” dose-escalation design.
Starting with dose level 4, patients who had cancers associated with HPV were excluded from enrollment because HPV is known to destroy WT p53.
FIG. 2 illustrates the dosing regiments (DRs) used in the “3+3” dose escalation trial.
Eight patients experienced dose reductions, including two patients who had been on study treatment for over 1 year, and another patient who had been on study treatment for 11 months. […] Both events were Grade 3 hypotension and were at the 3.1 mg/kg and the 4.4 mg/kg once-weekly dosing levels. […] Five patients discontinued treatment with AP1 due to these events.

[9] = system: human CD45 leukemic cells; assay: Survival in an in vivo xenotransplantation model; parameters: species or system mice; settings: for Long term survival, mice still alive: 130 days post start of treatment
Description: The median survival for group 1 and group 2 was 34 days and 83 days, respectively (p<0.0001).

[10] = system: Acute Myeloid Leukemia (AML) or Myelodysplastic Syndrome (MDS), expressing WT p53; assay: Clinical study of AP1 alone or with cytarabine in AML or MDS; assay type: in vivo, human; settings: evaluable patients with bone marrow biopsies before and after dosing
[11] = system: advanced solid tumors or lymphomas expressing WT p53; assay: Phase 1 dose-escalation trial of AP1: anti-tumor activity (RECIST / IWG); assay type: in vivo, human
Method: Anti-tumor activity was measured using Response Evaluation Criteria in Solid Tumors (RECIST) criteria for patients with solid tumors, and 2015 International Working Group (IWG) criteria for patients with lymphomas. The RECIST and IWG criteria enabled the objective evaluation of whether a tumor had progressed, stabilized, or decreased in size. Anti-tumor effects were also determined through physical examinations or clinically validated blood or serum tumor markers.
Anti-tumor activity was measured using RECIST criteria for patients with solid tumors and the IWG criteria for patients with lymphomas to objectively evaluate whether a tumor progressed, stabilized, or shrunk.
The percent change in tumor volume for each evaluable patient (i.e., having measurable disease by CT or PET-CT scan) is plotted from the highest to lowest value, or low to high response, and each bar of the histogram is colored by the best overall response measured for that patient per RECIST or IWG criteria.

[12] = d22, calculated using vehicle median volumes on d0 and d22
[13] = three consecutive measurements > 150% of d1 volume

SMILES: CC(=O)N[C@@H](CC(C)C)C(=O)N[C@H](C(=O)N[C@@H](Cc1ccccc1)C(=O)N[C@]1(C)CCCCCCC=CCCC[C@@](C)(C(=O)N[C@@H](C)C(=O)N[C@@H](C)C(=O)N[C@@H](C)C(=O)N[C@@H](C)C(=O)N[C@@H](C)C(=O)N[C@H](C)C(N)=O)NC(=O)[C@H](CC(C)C)NC(=O)[C@H](CCC(N)=O)NC(=O)[C@H](C)NC(=O)[C@H](Cc2c[nH]c3ccccc23)NC(=O)[C@H](Cc2ccc(O)cc2)NC(=O)[C@H](CCC(=O)O)NC1=O)[C@@H](C)O [AP1]
- maximum drug serum concentrations observed (Cmax) ([1]; all dose levels): dose-related increase
- half-lives ([1]; higher dose levels): five and seven
- doses achieving a maximal 24 hr MIC-1 increase above baseline [2]: ≥ 2.1 mg/kg
- Median tumor volume (mm^3) D1 ([3]; D1 (start of dosing), MCF-7.1 xenograft, nude mice): 126 mm^3
- Median tumor volume (mm^3) D22 ([3]; D22, MCF-7.1 xenograft, nude mice): 473 mm^3
- Median time to tumor volume > 500 mm^3 ([3]; MCF-7.1 xenograft): 22 days
- Median time to tumor volume > 1000 mm^3 ([3]; MCF-7.1 xenograft): 35 days
- % TGI (±SEM) on d22 (end of dosing) [3, 12]: 30 (9) %
- animals have reached endpoint ([3]; endpoint tumor volume > 1000 mm^3, MCF-7.1 xenograft): 10/10 animals
- Animals with disease progression [3, 13]: 10/10
- response of the first patient enrolled in the Phase 2 study in PTCL ([4]; after 2 cycles of treatment): partial response
- Best overall response ([4]; seven PTCL patients on AP1 therapy, one line per patient (patient 1 from dose escalation)): ODP
- Days on treatment ([4]; seven PTCL patients on AP1 therapy, one line per patient (patient 1 from dose escalation), Dose escalation study): 487 days
- Days on treatment ([4]; seven PTCL patients on AP1 therapy, one line per patient (patient 1 from dose escalation), Phase 2a study): 32 days and 1 days and 122 days and 134 days and 66 days and 53 days
- MCF-7 cell growth [5]: suppressed MCF-7 cell growth with or without treatment with palbociclib
- Median time to tumor volume > 500 mm^3 ([6]; A549 xenograft, AP1 20 mg/kg qwkx4): 25 days
- Median tumor volume (mm^3) D1 ([6]; D1 (start of dosing), A549 xenograft, nude mice, AP1 20 mg/kg qwkx4, palbociclib 75 mg/kg qdx22): 126 mm^3
- Median tumor volume (mm^3) D22 ([6]; D22, A549 xenograft, nude mice, AP1 20 mg/kg qwkx4, palbociclib 75 mg/kg qdx22): 405 mm^3
- % TGI (±SEM) on d22 (end of dosing) ([6]; d22, calculated using vehicle median volumes on d0 and d22, AP1 20 mg/kg qwkx4, palbociclib 75 mg/kg qdx22): 42 (7) %
- Animals with disease progression ([6]; three consecutive measurements > 150% of d1 volume, AP1 20 mg/kg qwkx4, palbociclib 75 mg/kg qdx22): 10/10
- animals have reached endpoint ([6]; tumor volume > 500 mm^3, A549 xenograft, AP1 20 mg/kg qwkx4, palbociclib 75 mg/kg qdx22): 8/10 animals
- Median tumor volume (mm^3) D1 ([7]; D1 (start of dosing), SJSA-1 xenograft, nude mice): 117 mm^3
- Median tumor volume (mm^3) D22 ([7]; D22, SJSA-1 xenograft, nude mice): 2150 mm^3
- Median time to tumor volume > 1000 mm^3 ([7]; SJSA-1 xenograft): 16 days
- Median time to tumor volume > 2000 mm^3 ([7]; SJSA-1 xenograft): 21 days
- % TGI (±SEM) on d22 (end of dosing) [7, 12]: 17 (6) %
- Animals with disease progression [7, 13]: 10/10
- dose limiting toxicity (DLT) ([8]; 3.1 mg/kg once weekly dosing): One dose limiting toxicity (DLT) of Grade 3 fatigue
- dose limiting toxicity (DLT) ([8]; […] once weekly): four DLTs (Grade 3 elevated alkaline phosphatase, Grade 3 hypotension, Grade 3 anemia, Grade 4 neutropenia)
- patients with transient decreases in lymphocytes post-dosing and primarily Grade 1 and 2 abnormalities ([8]; full recovery within a few days): approximately 50%
- MTD ([8]; human, in vivo, iv, dosed once a week by I.V. administration, patients): 3.1 mg/kg
- tolerability as considered by the investigators ([8]; patients, dose escalation trial): generally well tolerated
- most frequently reported drug-related events ([8]; reported by ≥10% of the patients): nausea, fatigue, vomiting, decreased appetite, anemia, headache, and constipation
- Long term survival, mice still alive ([9]; group 2): 22%
- Long term survival, mice still alive ([9]; group 3): 60%
- median survival ([9]; group 2 (group 1: 34 days), p<0.0001): 83 days
- overall survival ([9]; vs vehicle): doubled the overall survival
- patients who demonstrated stabilization of their disease [10]: 3
- responses with stabilization of tumor size (SDs) ([11]; 57 evaluable patients): 21
- stable diseased patients that exhibited tumor shrinkage ([11]; 57 evaluable patients): 7
- patient scans of the two CR patients ([11]; PTCL patient after six cycles, MCC patient after further treatment): the lymph node returned to its normal size; also recorded: showed no trace of cancer in the patient
- max time a patient received AP1 ([11]; one patient): 613 days
